Assay results published in patent US20230127944A1, “BROAD-SPECTRUM CARBAPENEMS” (priority 2019, published 2023).
In brackets after ≈: the same amount, converted by molar mass.

Tests used:
Assay type in all cases: cell-based
[1] = system: S. aureus ATCC 33591 (methicillin-resistant); test: broth microdilution MIC assay, S. aureus 33591; settings: Staphylococcus aureus, ATCC33591; S. aureus 33591, methicillin-resistant; read-out: MIC, S. aureus 33591
In short: (§1)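 CLSI broth microdilution in cation-adjusted Mueller-Hinton broth: colonies from Mueller Hinton II agar grown 3-5 h at 37° C, inoculum set by OD600 to 5×10^5 CFU/mL final. Compounds in 2-fold serial dilutions; plates incubated 16-20 hours at 37° C. MIC read visually as lowest concentration without growth.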

[2] = system: S. aureus USA 300; test: broth microdilution MIC assay, S. aureus USA300; settings: Staphylococcus aureus; S. aureus USA300 (MRSA); read-out: MIC, S. aureus USA300
In short: as §1

[3] = system: S. aureus USA 600; test: broth microdilution MIC assay, S. aureus USA600; settings: Staphylococcus aureus; S. aureus USA600 (MRSA); read-out: MIC, S. aureus USA600
In short: as §1

[4] = system: E. coli ATCC 25922 (wild-type/QC strain); test: broth microdilution MIC assay, E. coli 25922; settings: Escherichia coli, ATCC25922; read-out: MIC, E. coli 25922
In short: as §1

[5] = system: P. aeruginosa ATCC 27853 (wild-type/QC strain); test: broth microdilution MIC assay, P. aeruginosa 27853; settings: Pseudomonas aeruginosa, ATCC27853; read-out: MIC, P. aeruginosa 27853
In short: as §1

[6] = system: P. aeruginosa 35151 (hyper-permeable strain); test: broth microdilution MIC assay, P. aeruginosa 35151; settings: Pseudomonas aeruginosa, read-out: MIC, P. aeruginosa 35151
In short: as §1

[7] = system: P. aeruginosa ΔmexAB-OprM (an efflux pump knockout); test: broth microdilution MIC assay, P. aeruginosa ΔmexAB-OprM; settings: Pseudomonas aeruginosa, read-out: MIC, P. aeruginosa ΔmexAB-OprM
In short: as §1

[8] = system: P. aeruginosa Paeβ-17; test: broth microdilution MIC assay, P. aeruginosa Paeβ-17; settings: Pseudomonas aeruginosa, read-out: MIC, P. aeruginosa Paeβ-17
In short: as §1

`C[C@@H](O)[C@H]1C(=O)N2C(C(=O)O)=C(S[C@H]3C[C@@H](N[C@H]4CC[C@H](N)C4)C3)[C@H](C)[C@H]12` [Example 75, (4R,5S,6S)-3-(((1R,3S)-3-(((1S,3S)-3-aminocyclopentyl)amino)cyclobutyl)thio)-6-((R)-1-hydroxyethyl)-4-methyl-7-oxo-1-azabicyclo[3.2.0]hept-2-ene-2-carboxylic acid] was tested, and the MIC [1] was 8 to 32 µg/mL (≈ 20.2 to 80.9 µM), the MIC [2] was 1 to 4 µg/mL (≈ 2.53 to 10.1 µM) and the MIC [3] was 1 to 4 µg/mL (≈ 2.53 to 10.1 µM). It also gave an MIC [4] of under 1 µg/mL, an MIC [5] of 1 to 4 µg/mL (≈ 2.53 to 10.1 µM) and an MIC [6] of under 1 µg/mL. The MIC [7] was 8 to 32 µg/mL (≈ 20.2 to 80.9 µM) and the MIC [8] was 1 to 4 µg/mL (≈ 2.53 to 10.1 µM).

Work on `C[C@@H](O)[C@H]1C(=O)N2C(C(=O)O)=C(S[C@H]3C[C@H](N[C@@H]4CC[C@H](N)C4)C3)[C@H](C)[C@H]12` [Example 70, (4R,5S,6S)-3-(((1R,3R)-3-(((1R,3S)-3-aminocyclopentyl)amino)cyclobutyl)thio)-6-((R)-1-hydroxyethyl)-4-methyl-7-oxo-1-azabicyclo[3.2.0]hept-2-ene-2-carboxylic acid] yielded an MIC [1] of 8 to 32 µg/mL (≈ 20.2 to 80.9 µM), an MIC [2] of 8 to 32 µg/mL (≈ 20.2 to 80.9 µM) and an MIC [3] of 1 to 4 µg/mL (≈ 2.53 to 10.1 µM). It also gave an MIC [4] of under 1 µg/mL, an MIC [5] of 8 to 32 µg/mL (≈ 20.2 to 80.9 µM) and an MIC [6] of under 1 µg/mL. It also gave an MIC [7] of 1 to 4 µg/mL (≈ 2.53 to 10.1 µM) and an MIC [8] of 8 to 32 µg/mL (≈ 20.2 to 80.9 µM).

Work on `C[C@@H](O)[C@H]1C(=O)N2C(C(=O)O)=C(S[C@@H]3CCN([C@H]4CC[C@@H](NC(=N)N)C4)C3)[C@H](C)[C@H]12` [Example 31, (4R,5S,6S)-3-(((R)-1-((1S,3R)-3-guanidinocyclopentyl)pyrrolidin-3-yl)thio)-6-((R)-1-hydroxyethyl)-4-methyl-7-oxo-1-azabicyclo[3.2.0]hept-2-ene-2-carboxylic acid] yielded an MIC [1] of 1 to 4 µg/mL (≈ 2.29 to 9.14 µM), an MIC [2] of under 1 µg/mL and an MIC [3] of 1 to 4 µg/mL (≈ 2.29 to 9.14 µM). The MIC [4] was under 1 µg/mL, the MIC [5] was 1 to 4 µg/mL (≈ 2.29 to 9.14 µM) and the MIC [6] was under 1 µg/mL. The MIC [7] was under 1 µg/mL and the MIC [8] was 8 to 32 µg/mL (≈ 18.3 to 73.1 µM).

Work on `C[C@@H](O)[C@H]1C(=O)N2C(C(=O)O)=C(SC3CN([C@@H]4CC[C@@H](NC(=N)N)C4)C3)[C@H](C)[C@H]12` [Example 10, (4R,5S,6S)-3-((1-((1R,3R)-3-guanidinocyclopentyl)azetidin-3-yl)thio)-6-((R)-1-hydroxyethyl)-4-methyl-7-oxo-1-azabicyclo[3.2.0]hept-2-ene-2-carboxylic acid] yielded an MIC [1] of 1 to 4 µg/mL (≈ 2.36 to 9.44 µM), an MIC [2] of 1 to 4 µg/mL (≈ 2.36 to 9.44 µM) and an MIC [3] of 1 to 4 µg/mL (≈ 2.36 to 9.44 µM). For the same compound, the MIC [4] was under 1 µg/mL, the MIC [5] was 8 to 32 µg/mL (≈ 18.9 to 75.6 µM) and the MIC [6] was under 1 µg/mL. It also gave an MIC [7] of 1 to 4 µg/mL (≈ 2.36 to 9.44 µM) and an MIC [8] of 8 to 32 µg/mL (≈ 18.9 to 75.6 µM).

`C[C@@H](O)[C@H]1C(=O)N2C(C(=O)O)=C(S[C@@H]3CCN(C[C@H]4CC[C@H](CNC(=N)N)CC4)C3)[C@H](C)[C@H]12` [Example 41, (4R,5S,6S)-3-(((R)-1-(((1R,4R)-4-(guanidinomethyl)cyclohexyl)methyl)pyrrolidin-3-yl)thio)-6-((R)-1-hydroxyethyl)-4-methyl-7-oxo-1-azabicyclo[3.2.0]hept-2-ene-2-carboxylic acid] gave an MIC [1] of 1 to 4 µg/mL (≈ 2.08 to 8.34 µM), an MIC [2] of 1 to 4 µg/mL (≈ 2.08 to 8.34 µM) and an MIC [3] of 1 to 4 µg/mL (≈ 2.08 to 8.34 µM). It also gave an MIC [4] of under 1 µg/mL, an MIC [5] of 1 to 4 µg/mL (≈ 2.08 to 8.34 µM) and an MIC [6] of under 1 µg/mL. For the same compound, the MIC [7] was 1 to 4 µg/mL (≈ 2.08 to 8.34 µM) and the MIC [8] was 8 to 32 µg/mL (≈ 16.7 to 66.7 µM).

`C[C@@H](O)[C@H]1C(=O)N2C(C(=O)O)=C(S[C@@H]3CCN([C@@H]4CC[C@@H](N)C4)C3)[C@H](C)[C@H]12` [Example 35, (4R,5S,6S)-3-(((R)-1-((1R,3R)-3-aminocyclopentyl)pyrrolidin-3-yl)thio)-6-((R)-1-hydroxyethyl)-4-methyl-7-oxo-1-azabicyclo[3.2.0]hept-2-ene-2-carboxylic acid] was tested, and the MIC [1] was 1 to 4 µg/mL (≈ 2.53 to 10.1 µM), the MIC [2] was 1 to 4 µg/mL (≈ 2.53 to 10.1 µM) and the MIC [3] was 1 to 4 µg/mL (≈ 2.53 to 10.1 µM). It also gave an MIC [4] of under 1 µg/mL, an MIC [5] of 1 to 4 µg/mL (≈ 2.53 to 10.1 µM) and an MIC [6] of under 1 µg/mL. The MIC [7] was 1 to 4 µg/mL (≈ 2.53 to 10.1 µM) and the MIC [8] was 8 to 32 µg/mL (≈ 20.2 to 80.9 µM).

With `C[C@@H](O)[C@H]1C(=O)N2C(C(=O)O)=C(SC3CN([C@H]4C[C@@H](N)C4)C3)[C@H](C)[C@H]12` [Example 3, (4R,5S,6S)-3-((1-((1s,3S)-3-aminocyclobutyl)azetidin-3-yl)thio)-6-((R)-1-hydroxyethyl)-4-methyl-7-oxo-1-azabicyclo[3.2.0]hept-2-ene-2-carboxylic acid] the MIC [1] was 8 to 32 µg/mL (≈ 21.8 to 87.1 µM), the MIC [2] was 1 to 4 µg/mL (≈ 2.72 to 10.9 µM) and the MIC [3] was 1 to 4 µg/mL (≈ 2.72 to 10.9 µM). It also gave an MIC [4] of under 1 µg/mL, an MIC [5] of 8 to 32 µg/mL (≈ 21.8 to 87.1 µM) and an MIC [6] of under 1 µg/mL. The MIC [7] was 1 to 4 µg/mL (≈ 2.72 to 10.9 µM) and the MIC [8] was over 32 µg/mL.

`C[C@@H](O)[C@H]1C(=O)N2C(C(=O)O)=C(SC3CN([C@@H]4CC[C@H](NC(=N)N)C4)C3)[C@H](C)[C@H]12` [Example 12, (4R,5S,6S)-3-((1-((1R,3S)-3-guanidinocyclopentyl)azetidin-3-yl)thio)-6-((R)-1-hydroxyethyl)-4-methyl-7-oxo-1-azabicyclo[3.2.0]hept-2-ene-2-carboxylic acid] showed an MIC [1] of 1 to 4 µg/mL (≈ 2.36 to 9.44 µM), an MIC [2] of 1 to 4 µg/mL (≈ 2.36 to 9.44 µM) and an MIC [3] of 1 to 4 µg/mL (≈ 2.36 to 9.44 µM). For the same compound, the MIC [4] was under 1 µg/mL, the MIC [5] was 1 to 4 µg/mL (≈ 2.36 to 9.44 µM) and the MIC [6] was under 1 µg/mL. For the same compound, the MIC [7] was 1 to 4 µg/mL (≈ 2.36 to 9.44 µM) and the MIC [8] was 8 to 32 µg/mL (≈ 18.9 to 75.6 µM).
